Assay results from patent US6211215A, “Heterocyclic compounds, their production and use” (Takeda Chemical Industries, Ltd., priority 1996, dated 2001).

Tests used:
HER2 [1] = target: T1, HER2 (Homo sapiens, UniProt P04626); assay: Inhibition of phosphorylation of receptor tyrosine in human breast cancer cells (1), T-47D, heregulin-stimulated; format: cell-based
Experimental: Human breast cancer cell line T-47D was cultured for 7 days in the medium containing 0.1% bovine fetus albumin instead of serum to deprive the medium of estrogen. On the 7th day, 1,000 μl of the cell suspension (250,000 cells) was seeded in each well of the 24-well plates. The culture were incubated at 37° C. in a 5% carbon dioxide gas incubator. On the next day, 100 μl of the 10-fold serial dilution of each compound solution was added to each well and, 2 hours later, 0.5 μg/ml of heregulin was added to it. After 5 minutes the extract solution was added to it to terminate the reaction, and the protein fraction was extracted. To the extract was added an antibody against the human receptor type oncogene HER2 to precipitate the human receptor type oncogene HER2 protein by the reaction of immunoprecipitation. The precipitate was fractionated by the protein electrophoresis. The protein in the electrophoretic gel was transferred to a nylon filter. The filter was allowed to react with the phosphorylated tyrosine-specific antibody. The reaction product was fluorescence-labeled to expose a photofilm. The intensity of the exposure on the photofilm was quantitated by an image-analyzing apparatus. The proportion of the phosphorylation of HER2 tyrosine in the cells added with a compound solution of each concentration was calculated designating the phosphorylation of HER2 tyrosine in the heregulin-added cells as 100%.
Target sequence in this assay (P04626 23-1255): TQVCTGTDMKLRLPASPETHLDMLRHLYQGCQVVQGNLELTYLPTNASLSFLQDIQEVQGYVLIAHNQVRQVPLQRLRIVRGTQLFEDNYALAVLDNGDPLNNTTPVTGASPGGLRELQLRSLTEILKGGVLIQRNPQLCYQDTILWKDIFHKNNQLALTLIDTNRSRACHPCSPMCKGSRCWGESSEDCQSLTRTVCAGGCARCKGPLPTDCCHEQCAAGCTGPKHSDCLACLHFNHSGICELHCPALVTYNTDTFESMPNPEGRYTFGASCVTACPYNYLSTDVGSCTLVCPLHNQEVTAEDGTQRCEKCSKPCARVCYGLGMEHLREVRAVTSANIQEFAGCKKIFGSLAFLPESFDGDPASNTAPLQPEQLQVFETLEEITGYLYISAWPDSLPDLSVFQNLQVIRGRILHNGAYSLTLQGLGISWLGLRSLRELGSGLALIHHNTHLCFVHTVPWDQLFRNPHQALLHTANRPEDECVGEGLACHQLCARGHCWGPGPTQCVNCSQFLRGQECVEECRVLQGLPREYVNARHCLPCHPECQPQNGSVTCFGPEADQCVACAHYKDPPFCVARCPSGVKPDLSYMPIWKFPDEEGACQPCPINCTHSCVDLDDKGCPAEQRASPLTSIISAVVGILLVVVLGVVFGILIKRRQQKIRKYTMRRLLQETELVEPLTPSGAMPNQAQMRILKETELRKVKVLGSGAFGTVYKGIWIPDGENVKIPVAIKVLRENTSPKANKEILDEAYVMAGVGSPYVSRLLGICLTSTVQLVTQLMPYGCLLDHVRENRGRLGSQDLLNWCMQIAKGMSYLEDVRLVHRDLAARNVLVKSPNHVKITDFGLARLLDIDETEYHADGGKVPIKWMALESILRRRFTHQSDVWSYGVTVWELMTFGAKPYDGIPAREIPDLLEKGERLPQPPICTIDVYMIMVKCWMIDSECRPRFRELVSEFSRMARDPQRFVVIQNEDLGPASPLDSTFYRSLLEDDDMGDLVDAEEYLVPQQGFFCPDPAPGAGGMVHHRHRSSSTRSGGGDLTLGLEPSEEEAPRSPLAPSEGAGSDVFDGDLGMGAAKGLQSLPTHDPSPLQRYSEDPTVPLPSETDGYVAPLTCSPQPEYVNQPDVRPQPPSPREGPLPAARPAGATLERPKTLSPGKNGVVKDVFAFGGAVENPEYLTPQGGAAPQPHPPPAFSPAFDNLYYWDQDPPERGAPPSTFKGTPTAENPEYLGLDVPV

[2] = test system: human prostate cancer cell line, LNCaP; assay: In vivo inhibition of prostate cancer (2); set-up: species or system male Balb/C-strain athymic nude mice; conditions: for Tumor growth rate (%): 60 mg/kg/day, oral, 30 mg/kg twice daily for 21 days
Experimental: 5,000,000 cells of human prostate cancer cell line, LNCaP, were suspended in a gelmatrix solution and implanted subcutaneously at the breast in 8-week old male Balb/C-strain athymic nude mice (Friedman R. et al., Proceedings of the National Academy of Sciences of the U.S.A. Vol. 87, pp.6698-6702, 1990). 33 days after the implantation, the diameters of tumors were measured. Five mice per group with similar tumor size were used for the experiment. Compound 8 of the present invention was suspended in a 5% gum arabic solution (physiological saline) and administered orally twice daily in a dose of 30 mg/kg body weight for 21 days. For another experiment, the mice were castrated 33 days after implantation of the cancer cell for observing the effect of hormone depletion on the prostate cancer growth. Furthermore, Compound 8 of the present invention was administered orally twice daily in a dose of 30 mg/kg body weight for 21 days to the castrated mice. After the completion of the dosing, the diameters of tumor were measured. The tumor volume was calculated by the following formula: volume of tumor=longest diameter×shortest diameter×shortest diameter×1/2. The growth rate of tumors was obtained as the proportion to the volume of tumor in the control animals in which only the gum arabic solution was administered. The body weights of mice administered with Compound 8 of the present invention were measured during the experiment to observe no decrease.

[3] = test system: human mammary cancer cell line; assay: Selective in vitro inhibition of breast cancer cell growth (panel of cell lines, Test Example 6); format: cell-based; conditions: Table 6 cell lines
Experimental: 100 μl (containing 2,000 cells) of a cell suspension of various human breast cancer cell lines shown in [Table 6] was seeded in each well of the 96-well microtiter plates. The cells were incubated at 37° C. in a 5% carbon dioxide gas incubator. Next day, 100 μl of a 2 fold serial dilution of a compound solution was added to each well. The cultures were incubated for 3 days. The solution containing the compound was removed and the cells were washed with water. To the cells was added a 0.4% (V/W) dye SRB (dissolved in 1% acetic acid) solution to fix and stain the cell protein. The dye solution was removed and the fixed and stained cell protein was washed. The protein-bound dye was extracted with 200 μl of 10 mM Tris buffer. The optical density of the extracted dye was determined at the wavelength of 540 nm to estimate the quantity of the cells in terms of the protein quantity. Designating the protein quantity in the control to which no compound solution was added as 100%, the proportion of the residual protein quantity in each treated group was calculated, and IC50, which was the concentration of the compound required to inhibit the residual protein quantity to 50% the quantity of the control, was calculated.

HER2 [4] = target: T1, HER2; assay: Inhibition of the activity of human growth factor receptor (HER2) tyrosine kinase; format: biochemical; set-up: the tyrosine kinase domain of the human HER2 gene was cloned; made in house; host or cells: insect cell line SF-21 (recombinant insect virus vector); conditions: HER2 receptor type tyrosine kinase; ELISA with HER3 substrate; read-out: Concentration of inhibiting HER2 (IC50)
From the text: As enzyme standard, the tyrosine kinase domain of the human HER2 gene was cloned to prepare the recombinant gene of insect virus vector, with which the insect cell line SF-21 was infected to produce an enzyme protein (Guy P. M. et al., Journal of Biological Chemistry Vol. 267, pp.13851-13856, 1992). As substrate, the phosphorylated tyrosine domain of the HER3 protein was cloned to prepare the recombinant gene of plasmid vector with which Escherichia Coli strain JM109 was infected to give an enzyme protein (Sierke S. L. et al., Biochemistry Vol. 32, pp.10102-10108, 1993). The enzymatic reaction was performed by the enzyme-linked immunological method which consisted of fixing the substrate protein in wells of a 96-well microtiter plate, adding the enzyme into the wells and quantitating phosphorylated tyrosine, which was the reaction product, by use of the anti-phosphorylated tyrosine antibody (Cleaveland J. S. et al., Analytical Biochemistry Vol. 190, pp249-253, 1990).
Target sequence in this assay (P04626 720-987 limits assumed): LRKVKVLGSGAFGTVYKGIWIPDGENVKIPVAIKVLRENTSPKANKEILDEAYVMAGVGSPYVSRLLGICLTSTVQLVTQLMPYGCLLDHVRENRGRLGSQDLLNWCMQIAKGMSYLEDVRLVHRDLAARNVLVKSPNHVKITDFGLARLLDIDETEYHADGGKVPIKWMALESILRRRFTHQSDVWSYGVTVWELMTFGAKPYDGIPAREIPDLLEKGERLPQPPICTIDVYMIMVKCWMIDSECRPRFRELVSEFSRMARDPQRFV

- activity at 0.4 µM (HER2 [1]; T47D, 0.4 μM, heregulin control = 100%, read-out: Phosphorylation of the tyrosine residue (%)): 62%
- activity at 1.6 µM (HER2 [1]; T47D, 1.6 μM, heregulin control = 100%, read-out: Phosphorylation of the tyrosine residue (%)): 52%
- activity at 6.3 µM (HER2 [1]; T47D, 6.3 μM, heregulin control = 100%, read-out: Phosphorylation of the tyrosine residue (%)): 33%
- activity at 25 µM (HER2 [1]; T47D, 25 μM, heregulin control = 100%, read-out: Phosphorylation of the tyrosine residue (%)): 20%
- IC50 (HER2 [4]): 20 µM
SMILES: C(=C\c1nc(COc2ccc(CCCn3ccnc3)cc2)co1)/c1ccccc1 [Compound 8, 4-[4-[3-(1-imidazolyl)propyl]phenoxymethyl]-2-[(E)-2-phenylethenyl]oxazole]
- Inhibition of receptor tyrosine phosphorylation (HER2 [1]; heregulin): inhibit dose-dependently the phosphorylation reaction of the tyrosine residue in the receptor protein
- Tumor growth rate (%) ([2]; castrated group (castrated without compound: 69)): 55%
- Tumor growth rate (%) ([2]; non-castrated, tumor volume vs control): 80%
- Inhibition of implanted tumor growth ([2]; LNCaP, athymic nude mice): inhibiting tumor growth of hormone dependent prostate cancer LNCaP
- Effect of castration on tumor growth inhibiting effect ([2]; LNCaP, castrated athymic nude mice): further enhanced when the hormone levels were reduced by castration
- Selective inhibition of cell growth [3]: inhibit specifically the cell growth of human mammary cancer cell line
